{"source": "paper PMC4838876", "about": "“Multivalent display of minimal Clostridium difficile glycan epitopes mimics antigenic properties of larger glycans” (Nature Communications, 2016)", "type_in_all_cases": "binding, mouse", "key": {"anti-PS-I mAbs": {"test_system": "anti-PS-I mAbs", "test": "STD-NMR competition experiment", "conditions": "1 added to 200 μM, saturation transfer time 2 s", "source_text": "Figure 6 Epitope mapping of glycan–mAb interactions by STD-NMR. (a,b) Recognition of disaccharide 3 by mAb 10A1 shown as Lewis structure and three-dimensional model calculated with Glycam[70]. Colours indicate percentages of STD effects. (c) Recognition patterns of 3 by three mAbs. STD spectra were acquired at 2 s saturation transfer time in the presence of mAbs 2C5, 10A1 and 10D6 (from top to bottom). (d) Competition of trisaccharide 2 by pentasaccharide 1.\nOwing to the slow off-rates of 1 with all three mAbs, we were unable to determine any STD effects for the pentasaccharide. […] This indicated identical binding sites and confirmed high-affinity binding of 1.\nBefore the STD-NMR studies, proton resonances of oligosaccharides 1–3 were assigned using standard one-dimensional proton spectra, as well as 2D total correlation spectroscopy (2D-TOCSY), correlation spectroscopy, ^1H–^13C heteronuclear single quantum coherence and ^1H–^13C heteronuclear multiple bond correlation spectra at concentrations varying between 5 and 20 mM in D2O. All NMR studies were measured at 298 K on a Varian PremiumCOMPACT 600 MHz spectrometer equipped with a OneNMR probe. […] A total of 2,048 scans were recorded. […] STD build-up curves for mAb 10A1 were recorded at saturation transfer times of 0.5, 1, 2, 4 and 6 s, adjusting the prescan delay accordingly. […]"}, "mAb 10A1": {"test_system": "mAb 10A1", "test": "Isothermal titration calorimetry (ITC)", "experimental": "(§1) Figure 7 IM and thermodynamic analysis of glycan–mAb interactions and conformation of 1. (a) IM analysis. The heat maps represent on- and off-rates of mAb 2C5 to 1 (upper) and 3 (lower). (b) Thermograms acquired using 7 μM of mAb 2C5 and titrating 250 μM of 1 (left) or 3 mM of 3 (right) at 25 °C. Thermodynamic parameters were inferred by nonlinear least-square fits of the data points. (c) Summary of thermodynamic parameters for 1 and 3 interacting with mAbs 2C5 and 10A1. Bars represent mean±s.e.m. of two independent measurements. See Supplementary Fig. 6 for details. (d) One-dimensional proton NMR spectrum, and 2D zTOCSY and NOE spectroscopy (NOESY) NMR spectra of 1 showing the coupled protons to the anomeric protons of the five residues with numbering according to the structure shown in e. Blue circles mark cross-peaks that appear in the NOESY spectrum, whereas not showing a corresponding peak in the zTOCSY. These peaks were marked as inter-residue NOEs and labelled by residue number and proton name. […]\n(§2) Assuming that 1 had more interactions with the binding pockets, association with 1 would liberate more water molecules during complex formation than 3, thereby producing a more favourable entropy. To investigate this, thermodynamic parameters of mAb interactions with 1 and 3 were measured by ITC (Fig. 7b). […]"}, "mAb 2C5": {"test_system": "mAb 2C5", "test": "Isothermal titration calorimetry (ITC)", "experimental": "as §1, §2"}}, "data": [{"smiles": "C[C@@H]1O[C@@H](O[C@@H]2[C@@H](O)[C@H](O[C@H]3[C@H](O[C@@H]4O[C@@H](C)[C@H](O)[C@@H](O)[C@H]4O)[C@@H](O)[C@@H](O[C@H]4[C@@H](OCCCCCN)O[C@H](CO)[C@@H](O)[C@@H]4O)O[C@@H]3CO)O[C@H](CO)[C@H]2O)[C@H](O)[C@H](O)[C@H]1O", "note": "[Compound 1]", "values": [{"measurement": "Competition of trisaccharide 2 STD effects (in words)", "setting": "anti-PS-I mAbs", "value": "completely diminished any STD effects imposed by 2"}, {"measurement": "binding stoichiometry", "setting": "mAb 10A1", "value": 2.6}, {"measurement": "binding stoichiometry", "setting": "mAb 2C5", "value": 2.2}]}]}
